Test results reported in US20240149298A1, “PREPARATION OF HYDROPHOBIC SURFACES” (Technion Research & Development Foundation Limited, priority 2021, published 2024).
One block for each compound: values may come before it.

Assays:
[1] = Roughness (RMS) of spray-deposited fatty acid layer, dynamic confocal microscope; format: physicochemical; settings: for Roughness [μm] (about 10% RSD): sprayed on stainless steel, room temperature; for Roughness [μm] (N = 3) / Roughness [μm]: spray coating; for Roughness [μm]: N = 5
Procedure: Roughness and coating thickness were measured using a dynamic confocal microscope (Leica DCM3D); data processing was performed using SensoMap Turbo software. The coating thickness was calculated as the difference in height between the lower and upper levels of a confocal profile measured after a scratch implementation on the coating using a 25G needle. Spray coating was performed by spraying a selected organic solution of a selected fatty acid or a selected mixture of fatty acids on a desired surface using commercially available spraying gun. Gun adjustment is required to obtain the optimal coating properties. Exemplary adjustment parameters included distance from the treated surface, which was optimal at around 30 cm, and pulse duration, which was optimal at 1-5 seconds (e.g., 1-2 seconds). Other parameters are described hereinabove. Exemplary solutions were sprayed onto a surface of stainless steel, at room temperature. Roughness (RMS) and wettability measurements were performed as described hereinabove.

[2] = Wetting properties: water contact angle (CA) of fatty acid coatings; format: physicochemical; settings: for Contact angle [°] (about 5% RSD): sprayed on stainless steel, room temperature; for Contact angle [°] (N = 3) / Contact angle [°]: spray coating; for Contact angle [°]: N = 5
Procedure: Wetting properties of the coatings were characterized by CA and CAH measurements, which were performed using an Attension Theta Lite tensiometer and high-purity water or ethylene glycol (99.5%, Merck, Germany) droplets of 7 μL volume. Spray coating was performed by spraying a selected organic solution of a selected fatty acid or a selected mixture of fatty acids on a desired surface using commercially available spraying gun. Gun adjustment is required to obtain the optimal coating properties. Exemplary adjustment parameters included distance from the treated surface, which was optimal at around 30 cm, and pulse duration, which was optimal at 1-5 seconds (e.g., 1-2 seconds). Other parameters are described hereinabove. […] Roughness (RMS) and wettability measurements were performed as described hereinabove.

[3] = Contact angle hysteresis (CAH) of spray-coated fatty acid coatings; format: physicochemical; settings: spray coating
Procedure: Wetting properties of the coatings were characterized by CA and CAH measurements, which were performed using an Attension Theta Lite tensiometer and high-purity water or ethylene glycol (99.5%, Merck, Germany) droplets of 7 μL volume.

E. coli = experiment: Antimicrobial properties of fatty acid powders in liquid medium, drop-plate method; format: cell-based, Escherichia coli; settings: 50 milligram SFA powder per 1 mL suspension, 24 hours at 37° C.; control 1.2 ± 0.2 · 10^8
Procedure: (§1) Antimicrobial studies: The antimicrobial properties of fatty acid powders were evaluated by in liquid medium via the drop-plate method. One bacteria colony (E. coli or L. innocua) was incubated overnight in 4 mL Nutrient Broth (NB) liquid medium (Sigma Aldrich, Israel) at 37° C. under agitation (150 rpm) until the bacteria reached a stationary phase (about 10^9 CFU/mL). Then, the overnight bacteria culture was diluted in fresh NB medium (about 10^7 CFU/mL) and incubated for an additional 2 hours to achieve a logarithmic culture. Next, the logarithmic culture was diluted to 10^4 CFU mL^−1 in 1:100 NB medium.
(§2) 1 mL of the diluted bacterial suspension was incubated with 50 milligram of different SFA powders at 37° C. for 24 hours in 24-well-plates under agitation (100 rpm). The cultures were decimally diluted and 10 μL drops were transferred onto NB solid agar substrate. The colonies were counted after 24 hours incubation at 37° C.
(§3) To study the intrinsic bactericidal effect of the tested SFAs against both Gram-positive and Gram-negative bacteria, incubation of bacteria culture with powdered SFAs followed by colony counting was performed. Table 3 hereinbelow presents E. coli and L. innocua count in colony-forming unit (CFU) per milliliter, estimated by the drop-plate method following incubation for 24 hours at 37° C. with the SFA powders in respective liquid media.

L. innocua = experiment: as above; format: cell-based, Listeria innocua; settings: 24 hours at 37° C.; for L. innocua [CFU mL^−1]: 50 milligram SFA powder per 1 mL suspension, control 2.4 ± 0.2 · 10^5; for L. innocua growth inhibition: powdered SFA
Procedure: as §1, §2, §3

Botrytis cinerea [4] = experiment: Ex-planta rose petals, damaged area after Botrytis cinerea spore droplets; settings: thick, medium and thin sprayed layers; 10^4 spores per milliliter, 30 μL droplets, 72 hours, room temperature
Procedure: Botrytis cinerea culture was diluted in potato dextrose broth (PDB) medium to a final concentration of 10^4 spores per milliliter. 30 μL droplets were put on the coated leaves and uncoated control leaves and left in room temperature protected from light for 72 hours. A damaged area can be observed below and surrounding each droplet. The damaged area was then measured using a caliper along its long and the short directions.

Botrytis cinerea [5] = experiment: Anti-fungal effect of neat fatty acids on PDA agar plates; format: cell-based; settings: neat fatty acid at centre of PDA plate, 24° C., 72 hours
Procedure: Anti-fungal studies: Botrytis cinerea (B. cinerea) isolate B05.10 was collected from Vitis vinifera. Botrytis cinerea spores were plated on potato dextrose agar (PDA) plates, each fatty acid powder was placed in the center of the plate, and the plates were then incubated at 24° C. for 72 hours. In the case of caprylic acid, a hole was punched in the middle of the agar plate in order to contain its liquid form.

[6] = Diethyl ether (Tb 36.4), 20 mg/ml
[7] = Diethyl ether (Tb 36.4), 50 mg/ml
[8] = Diethyl ether (Tb 36.4), 50 mg/ml, listed as palmitic acid

Roughness [μm] (about 10% RSD) ([1]; Acetone, 10 mg/ml): 4.2 μm
Roughness [μm] (about 10% RSD) ([1]; Diethyl ether, 20 mg/ml): 5.6 μm
Roughness [μm] (about 10% RSD) ([1]; EtOH, 10 mg/ml): 4.7 μm
Contact angle [°] (about 5% RSD) ([2]; Acetone, 10 mg/ml): 120 °
Contact angle [°] (about 5% RSD) ([2]; Diethyl ether, 20 mg/ml): 132 °
Contact angle [°] (about 5% RSD) ([2]; EtOH, 10 mg/ml): 115 °
Structure (SMILES): CCCCCCCCCCCCCC(=O)O [Myristic acid]

Structure (SMILES): CCCCCCCCCCCCCCCCCC(=O)O [Stearic acid]
Roughness [μm] (N = 3) ([1]; Acetone (Tb 56.0), 10 mg/ml): 11.9 ± 3.7 μm
Roughness [μm] ([1]; Acetone (Tb 56.0), 20 mg/ml): 7.5 ± 0.9 μm
Roughness [μm] [1, 6]: 6.1 ± 1.0 μm
Roughness [μm] (N = 3) [1, 7]: 8.0 ± 0.6 μm
Roughness [μm] (N = 3) ([1]; EtOH (Tb 78.4), 10 mg/ml): 1.5 ± 0.06 μm
Roughness [μm] ([1]; EtOH (Tb 78.4), 20 mg/ml): 1.1 ± 0.1 μm
Roughness [μm] (about 10% RSD) ([1]; Acetone, 5 mg/ml): 1.3 μm
Roughness [μm] (about 10% RSD) ([1]; Acetone, 20 mg/ml): 7.5 μm
Roughness [μm] (about 10% RSD) ([1]; Diethyl ether, 15 mg/ml): 5.7 μm
Roughness [μm] (about 10% RSD) ([1]; Diethyl ether, 20 mg/ml): 6.1 μm
Roughness [μm] (about 10% RSD) ([1]; EtOH, 5 mg/ml): 0.7 μm
Roughness [μm] (about 10% RSD) ([1]; EtOH, 20 mg/ml): 1.1 μm
Roughness [μm] (about 10% RSD) ([1]; MeOH, 4 mg/ml): 3.5 μm
effect of adding a food coloring agent on water contact angle ([2]; 0.02 gram/ml in diethyl ether plus coloring agent, spray-coated on glass): no change in water contact angle
Contact angle [°] (N = 3) ([2]; Acetone (Tb 56.0), 10 mg/ml): 156.4 ± 1.5 °
Contact angle [°] ([2]; Acetone (Tb 56.0), 20 mg/ml): 156.5 ± 5.5 °
Contact angle [°] [2, 6]: 165.3 ± 1.1 °
Contact angle [°] (N = 3) [2, 7]: 165.7 ± 4.4 °
Contact angle [°] (N = 3) ([2]; EtOH (Tb 78.4), 10 mg/ml): 113.2 ± 4.6 °
Contact angle [°] ([2]; EtOH (Tb 78.4), 20 mg/ml): 118.3 ± 5.8 °
Contact angle [°] (about 5% RSD) ([2]; Acetone, 5 mg/ml): 145 °
Contact angle [°] (about 5% RSD) ([2]; Acetone, 20 mg/ml): 156 °
Contact angle [°] (about 5% RSD) ([2]; Diethyl ether, 15 mg/ml): 149 °
Contact angle [°] (about 5% RSD) ([2]; Diethyl ether, 20 mg/ml): 165 °
Contact angle [°] (about 5% RSD) ([2]; EtOH, 5 mg/ml): 110 °
Contact angle [°] (about 5% RSD) ([2]; EtOH, 20 mg/ml): 118 °
Contact angle [°] (about 5% RSD) ([2]; MeOH, 4 mg/ml): 136 °
CAH [°] (N = 3) ([3]; Acetone (Tb 56.0), 10 mg/ml): 2.3 ± 1.2 °
CAH [°] (N = 3) ([3]; Acetone (Tb 56.0), 20 mg/ml): 2.0 ± 1.7 °
CAH [°] (N = 3) [3, 6]: 2.2 ± 1.1 °
CAH [°] (N = 3) [3, 7]: 1.7 ± 1.4 °
CAH [°] (N = 3) ([3]; EtOH (Tb 78.4), 10 mg/ml): 27.5 ± 7.0 °
CAH [°] (N = 3) ([3]; EtOH (Tb 78.4), 20 mg/ml): 11 ± 1.2 °
E. coli [CFU mL^−1] (E. coli): 1.8 ± 0.05 · 10^8 CFU mL^−1
L. innocua [CFU mL^−1] (L. innocua): 1.9 ± 0.5 · 10^4 CFU mL^−1
L. innocua growth inhibition (L. innocua): inhibited by an order of magnitude

Structure (SMILES): CCCCCCCCCCCCCCCC(=O)O [Palmitic acid]
Roughness [μm] (N = 3) [1, 7]: 4.4 ± 0.4 μm
Roughness [μm] (about 10% RSD) ([1]; Acetone, 15 mg/ml): 5.0 μm
Roughness [μm] (about 10% RSD) ([1]; Diethyl ether, 10 mg/ml): 3.2 μm
Roughness [μm] (about 10% RSD) ([1]; Diethyl ether, 20 mg/ml): 4.8 μm
Roughness [μm] (about 10% RSD) ([1]; EtOH, 10 mg/ml): 2.3 μm
Roughness [μm] (about 10% RSD) ([1]; MeOH, 10 mg/ml): 3.6 μm
Contact angle [°] (N = 3) [2, 7]: 156.6 ± 2.3 °
Contact angle [°] (N = 3) [2, 8]: 156.6 °
CA angle ([2]; spray-coated): above 150 °
Contact angle [°] (about 5% RSD) ([2]; Acetone, 15 mg/ml): 140 °
Contact angle [°] (about 5% RSD) ([2]; Diethyl ether, 10 mg/ml): 145 °
Contact angle [°] (about 5% RSD) ([2]; Diethyl ether, 20 mg/ml): 148 °
Contact angle [°] (about 5% RSD) ([2]; EtOH, 10 mg/ml): 111 °
Contact angle [°] (about 5% RSD) ([2]; MeOH, 10 mg/ml): 137 °
CA ([2]; thermally deposited on glass): below 140 °
CAH [°] (N = 3) [3, 7]: 11.1 ± 4.6 °
CAH [°] (N = 3) [3, 8]: 11.1 °
E. coli [CFU mL^−1] (E. coli): 1.4 ± 0.6 · 10^8 CFU mL^−1
L. innocua [CFU mL^−1] (L. innocua): 1.7 ± 0.5 · 10^4 CFU mL^−1
L. innocua growth inhibition (L. innocua): inhibited by an order of magnitude
protection of rose petals against damage by Botrytis cinerea (Botrytis cinerea [4]): most effectively inhibit damage propagation
anti-fungal effect against Botrytis cinerea growth (Botrytis cinerea [5]): do not present any anti-fungal effect

Roughness [μm] (about 10% RSD) ([1]; EtOH, 10 mg/ml): 5.2 μm
Contact angle [°] (about 5% RSD) ([2]; EtOH, 10 mg/ml): 113 °
Structure (SMILES): CCCCCCCCCCCC(=O)O [Lauric acid]
